Data taken from PubChem BioAssay (NCI).
Values joined by “and” are separate entries in the source; they are usually repeats but may differ in a detail not shown here. Equal values may be shown once.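 Test compounds were applied to cells in 96-well plates for 48 hours at 5 doses. GI50 is the concentration that inhibits growth by half. Definition used: TGI = concentration required for complete inhibition of growth.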

Columns and labels:
Test in all cases: growth of human tumour cells (NCI), 48 h
SN12C renal = tested on: SN12C renal
COLO 205 colon = tested on: COLO 205 colon
LOX IMVI melanoma = tested on: LOX IMVI melanoma
HL-60(TB) leukemia = tested on: HL-60(TB) leukemia
SR leukemia = tested on: SR leukemia
UACC-257 melanoma = tested on: UACC-257 melanoma
OVCAR-3 ovarian = tested on: OVCAR-3 ovarian
UACC-62 melanoma = tested on: UACC-62 melanoma
CCRF-CEM leukemia = tested on: CCRF-CEM leukemia
M14 melanoma = tested on: M14 melanoma

Row | Compound | TGI (SN12C renal) | TGI (COLO 205 colon) | TGI (LOX IMVI melanoma) | TGI (HL-60(TB) leukemia) | TGI (SR leukemia) | TGI (UACC-257 melanoma) | TGI (OVCAR-3 ovarian) | TGI (UACC-62 melanoma) | TGI (CCRF-CEM leukemia) | TGI (M14 melanoma) | GI50 (UACC-62 melanoma) | GI50 (SN12C renal) | GI50 (CCRF-CEM leukemia) | GI50 (HL-60(TB) leukemia) | GI50 (M14 melanoma) | GI50 (SR leukemia) | GI50 (UACC-257 melanoma) | GI50 (OVCAR-3 ovarian) | GI50 (COLO 205 colon) | GI50 (LOX IMVI melanoma)
1 | O=c1c2ccccc2[nH]c(=S)n1-c1ccc(Br)cc1 | > 100 µM | > 100 µM | > 100 µM | > 100 µM | > 100 µM | > 100 µM | > 100 µM | – | – | – | – | – | – | – | – | – | – | – | – | –
2 | Cn1c2c(c3ccccc31)CCN(CCCCN1CCc3c(n(C)c4ccccc34)C1=O)C2 | > 100 µM | > 100 µM | – | > 100 µM | – | > 100 µM | > 100 µM | > 100 µM | > 100 µM | > 100 µM | – | – | – | – | – | – | – | – | – | –
3 | O=C(Oc1ccc(Cl)cc1Cl)c1ccccc1Nc1ccnc(C(F)(F)F)c1 | 7.63 µM | – | – | > 100 µM | > 100 µM | 26 µM | 24.9 µM | 7.06 µM | > 100 µM | 4.93 µM | 2.29 µM | 3.01 µM | 3.54 µM | 6.63 µM | 1.92 µM | 0.772 µM | 10.6 µM | 11 µM | – | –
4 | O=C(c1ccccc1)C(c1ccccc1)C1(O)C(=O)Nc2c(Cl)cc(Cl)cc21 (centres undefined) | > 100 µM | 33.7 µM | 42.8 µM | 39.5 µM | – | 35 µM | > 100 µM | – | 49.7 µM | 37.9 µM | – | – | – | – | – | – | – | – | – | –
5 | CC(=O)n1c(COS(C)(=O)=O)nc2ccccc21 | > 100 µM | > 100 µM | > 100 µM | – | – | > 100 µM | > 100 µM | > 100 µM | – | > 100 µM | – | – | – | – | – | – | – | – | – | –
6 | COc1ccc(-c2nc3sc(C)cn3c2/C=C/C(=O)c2cc(OC)c(OC)c(OC)c2)cc1 | > 100 µM | > 100 µM | > 100 µM | 7.48 µM | – | 6.37 µM | 5.83 µM | > 100 µM | > 100 µM | > 100 µM | 2.82 µM | 4.07 µM | 3.06 µM | 2.49 µM | 3.97 µM | – | 2.49 µM | 2.34 µM | 4.7 µM | 3.51 µM
7 | COC1=CC(=O)c2ccccc2C1(CCC=C(C)C)C1=NC(C)(C)CO1 (centres undefined) | > 100 µM | > 100 µM | – | 62.9 µM | > 100 µM | > 100 µM | > 100 µM | > 100 µM | > 100 µM | > 100 µM | – | – | – | – | – | – | – | – | – | –
8 | Cc1ccc(-[n+]2c3cc(N)c(C)cc3nc3cc(C)c(Nc4ccccc4)cc32)cc1 | – | 0.326 µM | – | 0.482 µM | – | 0.952 µM | – | 0.979 µM | > 100 µM | 0.428 µM | 0.236 µM | – | 0.223 µM | 0.102 µM | 0.134 µM | – | 0.242 µM | – | 0.0461 µM | –
9 | Nc1ccn(CCOC(=O)c2ccccc2)c(=O)n1 | > 100 µM | > 100 µM | > 100 µM | > 100 µM | – | > 100 µM | > 100 µM | > 100 µM | > 100 µM | > 100 µM | – | – | – | – | – | – | – | – | – | –
10 | COc1ccc2c(c1)/C(=C\c1c(C)nc3sc(C)cn13)C(=O)N2C | 32.3 µM | 49.8 µM | 26.2 µM | – | > 100 µM | > 100 µM | 3.99 µM | 10 µM | > 100 µM | 61.1 µM | 1.69 µM | 4.7 µM | 5.46 µM | – | 4.99 µM | 0.345 µM | 21.8 µM | 1.43 µM | 3.42 µM | 4.4 µM
11 | C=C1C(=O)O[C@H]2[C@H]1CC/C(Cn1cc(CNC(=O)Cc3cn(C(=O)c4ccc(Cl)cc4)c4ccc(OC)cc34)nn1)=C\CC[C@@]1(C)O[C@@H]21 | 3.21 µM | 4.22 µM | – | – | – | 3.39 µM | 3.19 µM | 3.18 µM | 2.4 µM | 3.28 µM | 1.63 µM | 1.62 µM | 0.384 µM | – | 1.65 µM | – | 1.75 µM | 1.61 µM | 2.04 µM | –
12 | COc1cc2c3c(n(C)c(=O)c2cc1OC)-c1cc2c(cc1/C3=C\CCCCCN)OCO2 | 18.4 µM | > 100 µM | – | 21.9 µM | – | 45.9 µM | 22.1 µM | 25.3 µM | 0.0641 µM | > 46.6 µM | 2.56 µM | 0.271 µM | 0.0121 µM | 2.92 µM | 2.55 µM | < 0.01 µM | 16.8 µM | 2.79 µM | 5.8 µM | –
13 | CCC[CH2][Sn-]([CH2]CCC)([CH2]CCC)[O]c1cc(Cl)c(Cl)cc1Cl | 0.338 µM | 0.4 µM | 0.34 µM | 0.167 µM | – | – | 0.365 µM | 0.394 µM | – | – | 0.152 µM | 0.164 µM | – | 0.0184 µM | – | – | – | 0.176 µM | 0.191 µM | 0.175 µM
14 | O=C(CNc1nncs1)NO | > 100 µM | > 100 µM | – | > 100 µM | – | > 100 µM | > 100 µM | > 100 µM | – | > 100 µM | – | – | – | – | – | – | – | – | – | –
15 | COc1cccc2cc(C)c(C(=O)c3ccccc3)nc12 | > 100 µM | > 100 µM | > 100 µM | – | – | > 100 µM | > 100 µM | > 100 µM | > 100 µM | > 100 µM | – | – | – | – | – | – | – | – | – | –
16 | Nn1c(-c2ccccc2)nc2ccc(Br)cc2c1=O | > 100 µM | > 100 µM | – | 76.8 µM | – | > 100 µM | 81.9 µM | > 100 µM | 76.4 µM | > 100 µM | – | – | – | – | – | – | – | – | – | –
17 | O=c1oc2cc(OS(=O)(=O)c3ccc(F)cc3)ccc2c2c1CCCCC2 | > 100 µM | > 100 µM | > 100 µM | > 100 µM | > 100 µM | > 100 µM | > 100 µM | – | – | > 100 µM | – | > 100 µM | – | > 100 µM | > 100 µM | > 100 µM | > 100 µM | > 100 µM | 2.17 µM | > 100 µM
18 | Cc1cc2c(c(C#N)c1C)NC(=O)CCC2=O | > 100 µM | > 100 µM | – | > 100 µM | > 100 µM | > 100 µM | > 100 µM | > 100 µM | > 100 µM | > 100 µM | – | – | – | – | – | – | – | – | – | –
19 | CN(C)c1cccc2c(S(=O)(=O)N[C@H]3CC[C@H]4[C@@H]5CCc6cc(O)ccc6[C@H]5CC[C@]34C)cccc12 | 3.43 µM | – | – | 8.23 µM | > 100 µM | 11.5 µM | 6.26 µM | 3.46 µM | > 100 µM | 18.3 µM | 1.55 µM | 1.64 µM | 3.25 µM | 2.78 µM | 3.7 µM | 2.79 µM | 2.51 µM | 2.33 µM | – | –
20 | COc1ccc(Cl)cc1Nc1nc(C(F)(F)F)ccc1C(=O)N/N=C/c1c(Cl)cccc1Cl | > 100 µM | – | > 100 µM | 41.6 µM | – | > 100 µM | 4.32 µM | > 100 µM | 6.17 µM | – | 7.16 µM | 8.78 µM | 1.04 µM | 4.87 µM | – | – | > 100 µM | 1.59 µM | – | 5.14 µM
21 | CN1CCN(CN2C(=O)C3C4C=CC(C3C2=O)C2C3C(=O)N(CN5CCN(C)CC5)C(=O)C3C42)CC1 (centres undefined) | 43.7 µM and 41.9 µM and 52.8 µM | 33.2 µM and 34.5 µM and 35.3 µM | 35.5 µM and 37.4 µM and 33.8 µM | – | 41.6 µM and 36.2 µM | 84.4 µM and 54.3 µM and > 100 µM | 48.2 µM and 57.6 µM and 75.5 µM | 43.3 µM and 37.1 µM and 58.7 µM | 65.3 µM and 42 µM and 48.3 µM | 30.8 µM and 34.2 µM and 40.8 µM | – | – | – | – | – | – | 35.7 µM and 25 µM and 62.2 µM | – | – | –
22 | CCOc1ccccc1NC(=O)C(=O)CC(=O)c1c(C)n([O-])c2ccccc2[n+]1=O | > 100 µM | > 100 µM | > 100 µM | > 100 µM | – | > 100 µM | 75.8 µM | > 100 µM | > 100 µM | > 100 µM | – | – | – | – | – | – | – | – | – | –
23 | COc1ccc2[nH]c3c(c2c1)CCN(C)CC3 | – | > 100 µM | > 100 µM | > 100 µM | – | > 100 µM | > 100 µM | > 100 µM | > 100 µM | > 100 µM | – | – | – | – | – | – | – | – | – | –
24 | COC(=O)C1CC2(CC3=C1CCCC3)OCCO2 (centres undefined) | > 100 µM | > 100 µM | > 100 µM | > 100 µM | – | > 100 µM | > 100 µM | > 100 µM | > 100 µM | > 100 µM | – | – | – | – | – | – | – | – | – | –
25 | O=C(NNc1nc(Cl)nc(N2CCN(C(c3ccccc3)c3ccccc3)CC2)n1)c1ccccc1 | 3.17 µM | 4.64 µM | 2.94 µM | 6.26 µM | – | 4.67 µM | 3.13 µM | 3.29 µM | 4.53 µM | 3.12 µM | 1.72 µM | 1.72 µM | 1.28 µM | 2.15 µM | 1.59 µM | – | 2.06 µM | 1.65 µM | 2.04 µM | 1.54 µM
26 | CC(=O)O/C=C(/C=C/OC(C)=O)C(C/C=C(\C)C#CC=C(C)C)OC(C)=O (centres undefined) | > 100 µM | 68.5 µM | 70.7 µM | 42.4 µM | – | > 100 µM | 68.6 µM | 77.7 µM | > 100 µM | 98.6 µM | – | – | – | – | – | – | – | – | – | –
27 | CC(=O)C1CC(C)=CCC12C(=O)Nc1ccccc12 (centres undefined) | > 100 µM | > 100 µM | > 100 µM | > 100 µM | – | – | > 100 µM | > 100 µM | > 100 µM | > 100 µM | – | – | – | – | – | – | – | – | – | –
28 | CNC(P(=O)([O-])[O-])P(=O)([O-])[O-].N.N.[Pt+2] | > 100 µM | > 100 µM | > 100 µM | – | – | – | > 100 µM | > 100 µM | – | > 100 µM | > 100 µM | > 100 µM | – | – | > 100 µM | – | – | > 100 µM | > 100 µM | > 100 µM
29 | N#Cc1c(Sc2ccccc2N)cccc1Sc1ccccc1N | – | – | – | – | – | – | – | – | – | – | 14.7 µM | 42.1 µM | 20.9 µM | 16.4 µM | 62.6 µM | 56.8 µM | 21.3 µM | – | 34.9 µM | –
